Test system: 521955-158-R2-J5-PDC complex spheroids, viability
Experiment: Anticancer human tumor 521955-158-R2-J5-PDC patient-derived pancreatic carcinoma cell line growth inhibition [RAS]
Details: for IC50: curve of first compound; for viability, T/C: stronger effect = lower value; active means viability on the fitted dose curve at most 10% of control; inactive means the rest
Summary of the method: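 Agents were tested in combination matrices in half-log decrements from a top concentration at or near clinical Cmax (10 microM if undetermined). Targets were multi-cell spheroids of tumour lines plus HUVEC and MSC stromal cells.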

[1] = second compound 0.000949 µM, first compound 0.00316 µM
[2] = second compound 0.000949 µM, first compound 0.01 µM
[3] = second compound 0.000949 µM, first compound 0.0316 µM
[4] = second compound 0.000949 µM, first compound 0.1 µM
[5] = second compound 0.000949 µM, first compound 0.316 µM
[6] = second compound 0.000949 µM, first compound 1 µM
[7] = second compound 0.003 µM, first compound 0.00316 µM
[8] = second compound 0.003 µM, first compound 0.01 µM
[9] = second compound 0.003 µM, first compound 0.0316 µM
[10] = second compound 0.003 µM, first compound 0.1 µM
[11] = second compound 0.003 µM, first compound 0.316 µM
[12] = second compound 0.003 µM, first compound 1 µM
[13] = second compound 0.00949 µM, first compound 0.00316 µM
[14] = second compound 0.00949 µM, first compound 0.01 µM
[15] = second compound 0.00949 µM, first compound 0.0316 µM
[16] = second compound 0.00949 µM, first compound 0.1 µM
[17] = second compound 0.00949 µM, first compound 0.316 µM
[18] = second compound 0.00949 µM, first compound 1 µM
[19] = second compound 0.03 µM, first compound 0.00316 µM
[20] = second compound 0.03 µM, first compound 0.01 µM
[21] = second compound 0.03 µM, first compound 0.0316 µM
[22] = second compound 0.03 µM, first compound 0.1 µM
[23] = second compound 0.03 µM, first compound 0.316 µM
[24] = second compound 0.03 µM, first compound 1 µM
[25] = second compound 0.0949 µM, first compound 0.00316 µM
[26] = second compound 0.0949 µM, first compound 0.01 µM
[27] = second compound 0.0949 µM, first compound 0.0316 µM
[28] = second compound 0.0949 µM, first compound 0.1 µM
[29] = second compound 0.0949 µM, first compound 0.316 µM
[30] = second compound 0.0949 µM, first compound 1 µM
[31] = second compound 0.3 µM, first compound 0.00316 µM
[32] = second compound 0.3 µM, first compound 0.01 µM
[33] = second compound 0.3 µM, first compound 0.0316 µM
[34] = second compound 0.3 µM, first compound 0.1 µM
[35] = second compound 0.3 µM, first compound 0.316 µM
[36] = second compound 0.3 µM, first compound 1 µM
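Further: compound exposure lasted seven days before the viability read.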
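Wherever viability, T/C is given: spheroids also contain HUVEC endothelial cells and mesenchymal stem cells as stroma.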

CCN1CCN(Cc2ccc(Nc3ncc(F)c(-c4cc(F)c5nc(C)n(C(C)C)c5c4)n3)nc2)CC1 + CCn1c(-c2cccnc2C(C)OC)c2c3cc(ccc31)N1CCOC(CC(NC(=O)C(C(C)C)N(C)C(=O)C3(F)CCN(C(=O)C#CC(C)(C)N(C)C)CC3)C(=O)N3CCCC(N3)C(=O)OCC(C)(C)C2)C1
inactive: viability, T/C [1] 96.8% | viability, T/C [2] 87.4% | viability, T/C [3] 61.9% | viability, T/C [4] 80.1% | viability, T/C [5] 87.8% | viability, T/C [6] 74.5% | viability, T/C [7] 88.6% | viability, T/C [8] 89.2% | viability, T/C [9] 81.9% | viability, T/C [10] 75.7% | viability, T/C [11] 79.1% | viability, T/C [12] 70.7% | viability, T/C [13] 85.5% | viability, T/C [14] 80.1% | viability, T/C [15] 74.2% | viability, T/C [16] 79.5% | viability, T/C [17] 69.1% | viability, T/C [18] 74% | viability, T/C [19] 73.8% | viability, T/C [20] 89.7% | viability, T/C [21] 76.9% | viability, T/C [22] 75.1% | viability, T/C [23] 73.1% | viability, T/C [24] 73.6% | viability, T/C [25] 66.8% | viability, T/C [26] 73.9% | viability, T/C [27] 73.7% | viability, T/C [28] 74.6% | viability, T/C [29] 71.6% | viability, T/C [30] 69.4% | viability, T/C [31] 71.5% | viability, T/C [32] 60.8% | viability, T/C [33] 59.9% | viability, T/C [34] 58.1% | viability, T/C [35] 61.6% | viability, T/C [36] 61.1%
> 1000 nM: IC50 (second compound 0.000949 µM) | IC50 (second compound 0.003 µM) | IC50 (second compound 0.00949 µM) | IC50 (second compound 0.03 µM) | IC50 (second compound 0.0949 µM) | IC50 (second compound 0.3 µM)

Nc1ccn(C2OC(CO)C(O)C2(F)F)c(=O)n1 (centres undefined) + CCn1c(-c2cc(N3CCN(C)CC3)cnc2C(C)OC)c2c3cc(ccc31)-c1csc(n1)CC(NC(=O)C1CC1C)C(=O)N1CCCC(N1)C(=O)OCC(C)(C)C2
inactive: viability, T/C [1] 35.3% | viability, T/C [2] 29% | viability, T/C [3] 30.2% | viability, T/C [4] 21% | viability, T/C [5] 22.9% | viability, T/C [6] 12% | viability, T/C [7] 39% | viability, T/C [8] 33.4% | viability, T/C [9] 36% | viability, T/C [10] 28% | viability, T/C [11] 20.5% | viability, T/C [12] 17.2% | viability, T/C [13] 32.2% | viability, T/C [14] 28.8% | viability, T/C [15] 29.9% | viability, T/C [16] 21.4% | viability, T/C [17] 19.8% | viability, T/C [18] 20.6% | viability, T/C [19] 22.5% | viability, T/C [20] 20.6% | viability, T/C [21] 18.3% | viability, T/C [22] 19.4% | viability, T/C [23] 13.7% | viability, T/C [24] 12.7% | viability, T/C [25] 10.2% | viability, T/C [26] 11.2% | viability, T/C [27] 13.3% | viability, T/C [28] 12.4% | viability, T/C [29] 9.85% | viability, T/C [30] 7.8% | viability, T/C [31] 13.4% | viability, T/C [32] 9.3% | viability, T/C [33] 11.2% | viability, T/C [34] 11.1% | viability, T/C [35] 9.17% | viability, T/C [36] 11.8%
< 3.16 nM: IC50 (second compound 0.000949 µM) | IC50 (second compound 0.003 µM) | IC50 (second compound 0.00949 µM) | IC50 (second compound 0.03 µM) | IC50 (second compound 0.0949 µM) | IC50 (second compound 0.3 µM)
